Experimental data from patent US11672786B2, “Methods of treating diseases associated with repeat instability” (The Hospital for Sick Children, priority 2016, dated 2023).

Columns and labels:
[1] = test system: HT1080-(CAG)850 cells; assay: cellular distribution by confocal microscopy; type: cell-based, human; conditions: 50-μM NBD-labeled NA, 48 hr
Experimental: Scale bar represents 20 μm. […] The cell viability was estimated with WST-1 assays. Values represent the means of three independent measures±SD. […] Error bars indicate the SD of triplicate experiments. […] The dashed line indicates the peak CAG size. Allele lengths are grouped in bins spanning 10 repeats. More than 230 alleles were sized per group.
HT1080-(CAG)850 cells were incubated with 50-μM NBD-labeled NA for 48 hr and Cell Light Plasma Membrane-RFP, BacMam 2.0 (Life Technologies, Carlsbad, Calif.), then fixed for 15 min at RT with 4% paraformaldehyde and washed 2 times for 10 min in phosphate buffered saline (PBS). Cells were mounted with Vectashield hard-set mounting media that contains DAPI (Vector Laboratories, Burlingame, Calif.). Fluorescence images were obtained using Olympus FV1000D confocal laser scanning microscope (Olympus, Tokyo, Japan).

[2] = test system: CAG expansions; conditions: by unknown processes; cited from earlier work

Structure (SMILES)	cellular distribution [1]	effect on CAG expansions [2]
Cc1ccc2ccc(NC(=O)CCN(CCCNC(=O)CCCNC(=O)CCCCCNc3ccc([N+](=O)[O-])c4nonc34)CCC(=O)NCc3ccc4ccc(=O)[nH]c4n3)nc2n1 [NBD-labeled NA, N-(4-((3-((3-((7-methyl-1,8-naphthyridin-2-yl)amino)-3-oxopropyl)(3-oxo-3-(((7-oxo-7,8-dihydro-1,8-naphthyridin-2-yl)methyl)amino)propyl)amino)propyl)amino)-4-oxobutyl)-6-((7-nitrobenzo[c][1,2,5]oxadiazol-4-yl)amino)hexanamide]	distributed throughout the nuclei and cytoplasm	–
CC(C)C[C@@H](/C=C/[C@H](Cc1ccccc1)C(=O)N1CCC[C@H]1C(=O)N[C@H](C(=O)N[C@@H](CCCNC(=O)OCc1ccccc1)C(=O)NC1CC(C)(C)N([O])C(C)(C)C1)C(C)C)NC(=O)OC(C)(C)C [XJB-5-131]	–	mildly suppress CAG expansions rather than induce contractions
